In patent publication US9770423B2, “Modulation sAPP, sAAPα and BDNF levels in individuals diagnosed with FXS and ASD” (Indiana University Research and Technology Corp., priority 2012, dated 2017):
Where “and” joins values, the source holds several entries; their conditions need not be identical. Identical values can stand only once.

Tests used:
sAPP = test: plasma sAPP total by ELISA pre- and post-acamprosate; format: in vivo, human
Source text: For sAPP levels, the Test plasma samples should be measured soon after collection. […] Just before assay, we thawed the test samples at a low temperature and mixed them completely. The plasma samples should be diluted appropriately with the EIA buffer, if needed. Duplicate measurement of test samples and standard are recommended. We used test samples in neutral pH range, and avoided the contaminations of organic solvent that may affect the measurement. Regarding the standard to quantify levels of sAPP, we prepared a series of sAPP standards in EIA buffer by serial dilutions, from 0.39 ng/mL to 25 ng/mL.
The ELISA plate was pre-coated with anti-human APP (R12A1) mouse IgG (IBL). First, the wells for reagent blank was determined, and 100 μL each of “EIA buffer” or 10 mM NaHCO3 buffer was added into the wells. Likewise, wells were assigned for test sample blank, test sample and diluted standard. Then 100 μL each of test sample blank, test sample and dilutions of standard was added into the appropriate wells. The test sample included the plasma sample from each subject, which may vary from 5-25 μl, made up to 100 μL with the EIA buffer. Each pre-coated plates was incubated overnight at 4° C. after covering it tightly with a plate lid. The plate was kept onto a rocker with gentle shaking. The next day, each well of the pre-coated plate was vigorously washed with wash buffer containing 0.05% Tween20 in phosphate buffer. This was performed by filling each well with wash buffer, leaving the pre-coated plate laid for 15-30 seconds and removing wash buffer completely from the plate by snapping. This procedure was repeated five times. After removing the remaining liquid from all wells completely by snapping the plate onto paper towel, we added 100 μL of labeled antibody solution into the wells of test samples, diluted standard and test sample blank. HRP labeled anti-Human APP (R101A4) mouse IgG from IBL was used. The plate was incubated for 30 minutes at 4° C. after covering it with plate lid, and then washed the plate 5 times in the same manner as described before. To develop the color, 100 μL of the Chromogen (TMB solution) was adding into the wells, and the plate was incubated for 30 minutes at room temperature in the dark.
When the liquid started turning blue (by addition of the Chromogen), 100 μL of the Stop solution (1N H2SO4) was added into the wells. […] A plate reader was used and measurements were conducted at 450 nm against a reagent blank. […]
The first project enrolled 12 youth aged 5 to 17 years with fragile X syndrome and comorbid ASD in a 10-week open-label trial of acamprosate. […] Plasma sAPP total and sAPPα were determined in serum using the ELISA kit obtained from Immuno Biological Laboratories (IBL, Gumma, Japan). […]

sAPPα = test: plasma sAPPα by ELISA pre- and post-acamprosate; format: in vivo, human
Experimental: Test plasma samples are measured soon after collection. When necessary test samples of plasma were frozen but not subjected to repeated freeze/thaw cycles. The test samples were thawed just before use at a low temperature and mixed them completely. If necessary, the plasma samples can be diluted appropriately with the EIA buffer, and assay may be performed in duplicate measurements for the test samples and standards. Test samples in neutral pH range were used, and steps were taken to avoid the contamination with of organic solvents. Regarding the standard to quantify the sAPPα levels, a series of sAPPα standards in EIA buffer by serial dilutions, from 0.78 ng/mL to 50 ng/mL were prepared.
The ELISA plates were pre-coated with anti-human sAPPα(2B3) mouse IgG-monoclonal affinity purified (IBL). First, the wells for the reagent blank were determined, and 100 μL each of “EIA buffer” or 10 mM NaHCO3 (pH9.5) buffer was placed into each of the wells. Likewise, wells were assigned for test sample blanks, test samples and diluted standards. Next, 100 μL each of test sample blank, test sample and dilutions of standard was added to into the appropriate wells. The test sample included the plasma sample from each subject, which may vary from 5-25 μl, made up to 100 μL with the EIA buffer. The pre-coated plate was incubated overnight at 4° C. after covering it tightly with a plate lid. The plate was kept onto a rocker with gentle shaking Next day, each well of the pre-coated plate was vigorously washed with wash buffer containing 0.05% Tween 20 in phosphate buffer. This was done by filling each well with the wash buffer, leaving the pre-coated plate laid for 15-30 seconds and removing wash buffer completely from the plate by snapping. This procedure was repeated five times. After removing the remaining liquid from all wells completely by snapping the plate onto paper towel, 100 μL of labeled antibody solution was added into the wells of test samples, diluted standard and test sample blank. HRP-conjugated and labeled anti-Human APP (R101A4) mouse IgG from IBL was used. Each plate was incubated for 30 minutes at 4° C. after covering it with plate lid, and then washed the plate 5 times in the same manner as described before. To develop the color, 100 μL of the Chromogen (TMB solution) was added to into the wells, and the plate was incubated for 30 minutes at room temperature in the dark. When the liquid started turning blue (by addition of the Chromogen), 100 μL of the Stop solution (1N H2SO4) was added into the wells. The liquid was mixed by tapping the side of plate, and the liquid turned yellow by addition of the Stop solution. […] A plate reader was used and measurements were conducted measurement at 450 nm against a reagent blank. […]

adult males with FXS = details: of 3 adult males with FXS, cited from earlier work
[1] = tested on: youths symptomatic for an autistic disorder; details: mean dose 1,110 mg/day, 10 to 30 weeks; cited from earlier work
[2] = tested on: extracellular dopamine levels in the nucleus accumbens; details: rats; dependent on glycine receptor activation; cited from earlier work
[3] = individual patients 1-6, baseline to Week 12

Structure (SMILES): CC(=O)NCCCS(=O)(=O)O.[Ca] [acamprosate, Calcium Acetylhomotaurine]
- fractional change in sAPP (total)-CP (sAPP; [3]): −0.8279 and −0.3066 and −0.0102 and −0.1029 and −0.437 and −0.544
- mean sAPP total post-treatment (sAPP; pooled 15 participants (9 FXS, 6 idiopathic ASD), pre-treatment 32.6±38.3 ng/mL, p=0.01): 21.4 ± 32.3 ng/mL
- levels of both sAPP total and sAPPα, direction of change per sample (sAPP; pooled 15 subjects): reduced with treatment in every sample tested except in one subject with idiopathic ASD where sAPPα was unchanged
- mean sAPP total levels at endpoint (sAPP; six subjects of the 12-week trial, baseline 34.7 ng/mL, p=0.02): 19.3 ng/mL
- fractional change in sAPPα-CP (sAPPα; [3]): −0.7108 and −0.3184 and 0 and −0.02825 and −0.5967 and −0.4596
- sAPPα-CP, Week 12 (sAPPα; individual patients 1-6, titled as diagnosed with FXS, after treatment): 2.486 ng/mL and 5.056 ng/mL and 2.764 ng/mL and 4.778 ng/mL and 7.417 ng/mL and 2.694 ng/mL
- mean sAPPα post-treatment (sAPPα; pooled 15 participants (9 FXS, 6 idiopathic ASD), pre-treatment 8.4±7.9 ng/mL, p=0.003): 5.5 ± 7.2 ng/mL
- mean sAPPα levels at endpoint (sAPPα; six subjects of the 12-week trial, baseline 7.8 ng/mL, p=0.03): 4.2 ng/mL
- subjects with non-treatment limiting gastrointestinal distress (emesis and/or nausea) (adult males with FXS): Two subjects
- subjects with significant positive clinical response as measured by the CGI-I (adult males with FXS; mean dose 1,221 mg/day, mean duration 21.3 weeks): 3
- youths judged treatment responders [1]: five of six
- extracellular dopamine levels in the nucleus accumbens [2]: elevates extracellular dopamine levels
